US9073856B2, “Phenyl methanesulfonamide derivatives useful as MGAT-2 inhibitors” (Eli Lilly and Company, priority 2012, dated 2015)
Where a name gives a salt, the structure may show the parent alone.

Tests used:
human MGAT-2 [1] = molecular target: T1, human MGAT-2 (Homo sapiens, UniProt Q3SYC2); assay: MGAT-2 Cell Assay (Caco-2 cells stably transfected with human MGAT-2, HDG substrate, LC-MS); type: cell-based; conditions: HDG/DOPC
Protocol: The inhibitory activity of compounds against human MGAT-2 in a cell environment is evaluated in this assay. Caco-2 is a human colon carcinoma cell line and is often used as a model for intestinal epithelial cells. […] A MAG analogue, 2-O-Hexadecylglycerol (HDG), is utilized to detect cellular MGAT-2 activity, because HDG is not be hydrolyzed and the resulting product is readily monitored by mass spectrometry. The substrate is delivered to cells using phospholipid vesicles.
Seed the Caco2 cells onto 100 mm dishes to be 80% confluent after 24 hours in complete media (3/1 DMEM: F12+10% FBS+20 mM HEPES+gentamicin). Transfect the cells with hMGAT-2 plasmid (MGAT-2-pCDNA3.1-Hygro) using Lipofectamine 2000 (Invitrogen). After a 6 hour exposure to the transfection mixture, wash the cells 3× in PBS and then add media. Incubate the cells for an additional 18 hours incubation, trypsinize the cells and serially dilute them into 100 mm dishes. Added complete media+400 μg/ml hygromycin and incubate until clones appear. Isolate and transfer the clones into 24 well dishes and grow to confluency. Prepare the RNAs from these clones using a Qiagen RNAeasy kit. Perform Taqman analysis using an ABI inventoried assay (HS00228262) on a 7900 Sequence Detection System (ABI). Analyze the lysates from these clones western blot analysis using a goat polyclonal antibody (Santa Cruz, SC-32392 to confirm human MGAT-2 expression of a 38 Kdal protein corresponding to MGAT-2.
Mix 2-O-hexadecylglycerol (“HDG”, Biosynth Chemistry & Biology, # H-1806, 562.7 μl of 20 mg/ml) and DOPC (14.3 ml of 20 mg/ml) in a glass tube; dry first under N2 gas; and then under vacuum for additional 30 minutes. Add 20 ml of buffer (150 mM Tris-Cl pH 7.4, 250 mM Sucrose, 1 mM EDTA) to the dried HDG/DOPC mixture while sonicating until the solution becomes clear. Plate the Caco2 cells into a poly-D-lysine coated 96-well plate (the “Cell Plate”) at 37° C., 5% CO2 overnight. Remove the growth media and pretreat the cells with the test compound in DMEMF12 (3:1) media (GIBCO 93-0152DK) containing 2% BSA (Sigma) for 30 minutes. Treat the cells with one test compound in 2% BSA DMEMF12 (3:1) media containing 40 μM of oleic acid and 800 μM of 8.9% HDG/DOPC for 4 hours. Trypsinize the cells with 50 μl of trypsin and add 50 μl of PBS. Immediately freeze the cells on dry ice and store at −20° C. for LC-MS analysis. Extract the cells with chloroform/methanol as follows transfer the cells to a 2 ml Plate; wash the Cell Plate with 200 μL methanol and then transfer the methanol wash to the 2 ml Plate; wash the Cell Plate again with 200 μL PBS and transfer the PBS wash to the 2 ml Plate. Add chloroform (400 μL) with internal standard (19.52 ng/mL) DAG (15:0,15:0 (Sigma)), D5-TAG (39.03 ng/mL) CDN (16,16,16) to the 2 mL Plate. […]

human MGAT-2 [2] = molecular target: T1, human MGAT-2; assay: MGAT-2 Inhibitory Assay (14C-oleoyl-CoA, Microscint E extraction, SF9 cell lysate); type: biochemical; parameters: made in house; host or cells: Insect SF9 cells (supernatant of homogenate, unpurified); conditions: human MGAT-2 expressed in SF9 cells, 90 minutes, room temperature; read-out: IC50 in MGAT-2 in vitro assay
Protocol: The in vitro inhibitory activity of compounds against human MGAT-2 is evaluated in this assay. MGAT-2 transfers an oleoyl group to monooleoyl-glycerol (“MAG”) from oleoyl-CoA to form dioleoyl-glycerol (“DAG”) in the intestinal triglyceride resynthesis pathway. The assay takes advantage of Microscint E extraction, which extracts hydrophobic molecules selectively over hydrophilic ones to separate the ^14C-oleoyl-CoA from ^14C-DAG.
Insect SF9 cells express human MGAT-2. Prepare the cell lysate in 20 mM of NaCl with protease inhibitor (Roche Cat#11873580001). Homogenize the SF9 cells expressing human MGAT-2 at 15,000 rpm for 20×2 seconds (PT-3100 Polytrone). Centrifuge the homogenate at 1000 g for 10 minutes at 4° C. Collect the supernatant into a separate tube for protein quantification and activity testing. Purify the glycerol monooleate substrate (Spectrum Chemical, CAS#25496-72-4) chromatographically. Prepare the monoacylglyerol (MAG) substrate in phospholipid vescicles (dioleoyl phosphatidylcholine “DOPC”). Prepare the MAG/DOPC vesicles at 20 mM concentration of total lipids (MAG and DOPC). Prepare different molar ratios of MAG to total lipids for either compound screening (8.9%) or compound kinetic studies (2.6-40%). Mix the appropriate amount of purified MAG and DOPC (Avanti Polar Lipids #850375C) in a glass tube under N2 gas and then dry under vacuum for 30 minutes. […]

TAG absorption = assay: Dog Oil Bolus Model (plasma TAG after olive oil bolus); type: in vivo; conditions: male beagles, olive oil 5 ml/kg
Protocol: Inhibiting MGAT-2 found in the small intestine may be useful for treating hypertriglyceridemia caused by excessive fat intake. To assess the ability of the exemplified compounds to inhibit TAG absorption, twenty one male beagles (n=7 per treatment group) are enrolled for each study each dog selected to have a body weight between 9-13 kg. House the dogs in cages with a standard light cycle (12 hours light and 12 hours dark); at room temperature: 72±8° F.; and at 30%-70% relative humidity. Fast the dogs for 16 hours prior to the start of the study, then dose the fasted dogs with vehicle (1% HEC, 0.25%, Tween 80, Antifoam) or one of the test compounds. Bleed the dogs one hour after dosing, (0.5 ml from the jugular vein) for a time 0 sample. Dose the dogs with olive oil (Sigma Catalog#: O-1514, 5 ml/kg) immediately after collection of the time 0 sample. Collect samples into an EDTA tube on ice at 1.5, 2, 3, 5, 7, and 9 hrs post compound/vehicle dosing. […]
The analyte is the [M+NH4]+ ion of TAG 18:1 18:1 18:1, which has a mass of 902.8 m/z; the internal standard is D5 TAG 16:0 16:0 16:0, which has a mass of 829.8 m/z. […] The percent inhibition of plasma triglyceride is calculated as follows: the (oil bolus group mean of net TAG AUC−oil bolus group mean of net TAG AUC with compound treatment/oil bolus group mean of net TAG AUC)*100. […]

[3] = Caco-2 cells expressing human MGAT-2, 4 hours, read-out: Basal Triglyceride Caco 2 Relative IC50

T1 sequence (Q3SYC2 whole entry): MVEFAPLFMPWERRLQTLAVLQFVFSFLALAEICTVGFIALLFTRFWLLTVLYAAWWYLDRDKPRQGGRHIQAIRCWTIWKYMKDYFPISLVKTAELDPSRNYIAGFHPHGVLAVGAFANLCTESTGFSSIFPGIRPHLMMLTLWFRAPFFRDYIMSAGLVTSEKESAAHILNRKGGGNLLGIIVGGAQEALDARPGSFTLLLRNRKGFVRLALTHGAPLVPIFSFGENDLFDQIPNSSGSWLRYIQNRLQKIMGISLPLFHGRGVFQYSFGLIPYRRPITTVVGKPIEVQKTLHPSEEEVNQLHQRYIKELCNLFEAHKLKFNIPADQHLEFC

IC50 (human MGAT-2 [1]; [3]) [nM] | Compound | IC50 (human MGAT-2 [1]; Basal Triglyceride Caco 2 Relative IC50, Caco-2 cells expressing human MGAT-2, 4 hours) [nM] | IC50 (human MGAT-2 [2]) [nM] | inhibition of TAG absorption (percent inhibition of net plasma TAG AUC) (TAG absorption; dosed at 10 mg/kg) [%] | inhibition of TAG absorption (TAG absorption; dosed at 30 mg/kg)
17.7 | CS(=O)(=O)N[C@@H](c1ccc(CN2CCC(c3ccc(F)cc3)CC2)cc1)C(F)(F)F [Example 4, N-[(1S)-2,2,2-trifluoro-1-(4-{[4-(4-fluorophenyl)piperidin-1-yl]methyl}phenyl)ethyl]methanesulfonamide hydrochloride] |  |  |  | 
 | CC(C)(C)C1CCN(Cc2ccc([C@H](NS(C)(=O)=O)C(F)(F)F)cc2)CC1.Cl [Example 1, N-[(1S)-1-[4-[(4-tert-Butylpiperidin-1-yl)methyl]phenyl]-2,2,2-trifluoro-ethyl]methanesulfonamide hydrochloride] | 58.2 | < 12 | 69 | completely inhibited
64.2 | C[C@@H](NS(C)(=O)=O)c1ccc(CN2CCC(c3ccc(F)cc3)CC2)cc1 [Example 5, N-[(1R)-1-(4-{[4-(4-fluorophenyl)piperidin-1-yl]methyl}phenyl)ethyl]methanesulfonamide hydrochloride] |  |  |  | 

Compound | IC50 (human MGAT-2 [1]; [3]) [nM] | IC50 (human MGAT-2 [1]; Basal Triglyceride Caco 2 Relative IC50, Caco-2 cells expressing human MGAT-2, 4 hours) [nM] | IC50 (human MGAT-2 [2]) [nM] | inhibition of TAG absorption (percent inhibition of net plasma TAG AUC) (TAG absorption; dosed at 10 mg/kg) [%] | inhibition of TAG absorption (TAG absorption; dosed at 30 mg/kg)
CC(C)(C)C1CCN(Cc2ccc([C@H](NS(C)(=O)=O)C(F)(F)F)cc2)CC1 [Example 2, N-[(1S)-1-{4-[(4-tert-butylpiperidin-1-yl)methyl]phenyl}-2,2,2-trifluoroethyl]methanesulfonamide phosphoric acid] | 102 |  |  |  | 
